The results in this text go back to BindingDB's records for patent US8969325 (Abbvie, 2015).

The assay concerns the target Transient receptor potential cation channel subfamily V member 1 (Homo sapiens, UniProt Q8NER1). Kind of assay: Activation Assay. The protocol: Expression plasmids encoding the hTRPV1 cDNA were transfected into HEK293 cells using Lipofectamine. Forty-eight hours after transfection, the neomycin-resistant cells were selected with growth medium containing 800 ug/mL Geneticin (Life Technologies, formerly Gibco BRL). Surviving individual colonies were isolated and screened for TRPV1 activity.

Sequence of Transient receptor potential cation channel subfamily V member 1 (Q8NER1 whole entry): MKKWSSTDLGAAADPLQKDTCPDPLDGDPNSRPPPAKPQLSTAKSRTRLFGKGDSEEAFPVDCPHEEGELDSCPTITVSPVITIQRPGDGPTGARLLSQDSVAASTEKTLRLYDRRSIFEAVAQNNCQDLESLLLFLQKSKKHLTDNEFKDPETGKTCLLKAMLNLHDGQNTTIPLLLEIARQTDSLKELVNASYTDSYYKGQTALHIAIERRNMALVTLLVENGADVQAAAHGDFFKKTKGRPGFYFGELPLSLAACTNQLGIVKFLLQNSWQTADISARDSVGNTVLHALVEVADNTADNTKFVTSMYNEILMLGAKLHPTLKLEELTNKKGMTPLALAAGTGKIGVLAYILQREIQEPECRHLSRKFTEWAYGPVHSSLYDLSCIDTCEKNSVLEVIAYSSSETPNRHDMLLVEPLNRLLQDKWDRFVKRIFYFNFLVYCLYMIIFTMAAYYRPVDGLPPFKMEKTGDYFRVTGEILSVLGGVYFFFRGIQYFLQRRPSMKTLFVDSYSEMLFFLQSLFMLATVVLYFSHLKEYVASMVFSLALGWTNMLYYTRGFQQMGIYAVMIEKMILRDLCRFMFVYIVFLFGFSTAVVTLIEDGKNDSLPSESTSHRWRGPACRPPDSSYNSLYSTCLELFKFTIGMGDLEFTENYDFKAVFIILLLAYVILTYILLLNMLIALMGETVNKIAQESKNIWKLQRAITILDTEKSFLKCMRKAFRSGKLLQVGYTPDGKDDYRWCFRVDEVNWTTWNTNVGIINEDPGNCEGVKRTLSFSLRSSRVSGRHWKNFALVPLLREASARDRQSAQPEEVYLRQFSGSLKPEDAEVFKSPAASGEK

In turn, `CN1C(=O)NCc2c(NC(=O)N[C@@H]3CC(C)(C(F)F)Oc4cc(Cl)ccc43)cccc21` (stereo partly specified) [US8969325, 136] came in with an IC50 of 21 nM.

As a reminder, the IC50 is the concentration that gives 50% inhibition.
